From US20230348426A1, “OXOPYRROLIDINE FPR2 AGONISTS” (Bristol-Myers Squibb Company, priority 2020, published 2023)

What was measured:
[1] = molecular target: human FPR2 (Homo sapiens (Human), UniProt P25090); experiment: FPR2 cyclic adenosine monophosphate (cAMP) assay; format: cell-based; settings: CHO cells overexpressing human FPR2; forskolin 5 µM; inhibition of cAMP production; read-out: hFPR2 cAMP2 EC50
Description: (§1) N-formyl peptide receptors (FPRs) are a family of chemo attractant receptors that facilitate leukocyte response during inflammation. FPRs belong to the seven-transmembrane G protein-coupled receptor superfamily and are linked to inhibitory G-proteins (Gi). Three family members (FPR1, FPR2 and FPR3) have been identified in humans and are predominantly found in myeloid cells with varied distribution and have also been reported in multiple organs and tissues. After agonist binding, the FPRs activate a multitude of physiological pathways, such as intra cellular signaling transduction, Ca^2+ mobilization and transcription. The family interacts with a diverse set of ligands that includes proteins, polypeptides and fatty acid metabolites which activate both pro-inflammatory and pro-resolution downstream responses. FPR2 and FPR1 Cyclic Adenosine Monophosphate (cAMP) Assays were used to measure the activity of the compounds in this patent.
(§2) FPR2 and FPR1 Cyclic Adenosine Monophosphate (cAMP) Assays. A mixture of forskolin (5 µM final for FPR2 or 10 µM final for FPR1) and IBMX (200 µM final) were added to 384-well Proxiplates (Perkin-Elmer) pre-dotted with test compounds in DMSO (1% final) at final concentrations in the range of 0.020 nM to 100 µM. Chinese Hamster Ovary cells (CHO) overexpressing human FPR1 or human FPR2 receptors were cultured in F-12 (Ham’s) medium supplemented with 10% qualified FBS, 250 µg/ml zeocin and 300 µg/ml hygromycin (Life Technologies). Reactions were initiated by adding 2,000 human FPR2 cells per well or 4,000 human FPR1 cells per well in Dulbecco’s PBS (with calcium and magnesium) (Life Technologies) supplemented with 0.1% BSA (Perkin-Elmer). The reaction mixtures were incubated for 30 min at room temperature. The level of intracellular cAMP was determined using the HTRF HiRange cAMP assay reagent kit (Cisbio) according to manufacturer’s instruction. Solutions of cryptate conjugated anti-cAMP and d2 flurorophore-labelled cAMP were made in a supplied lysis buffer separately. Upon completion of the reaction, the cells were lysed with equal volume of the d2-cAMP solution and anti-cAMP solution. After a 1-h room temperature incubation, time-resolved fluorescence intensity was measured using the Envision (Perkin-Elmer) at 400 nm excitation and dual emission at 590 nm and 665 nm. A calibration curve was constructed with an external cAMP standard at concentrations ranging from 1 µM to 0.1 pM by plotting the fluorescent intensity ratio from 665 nm emission to the intensity from the 590 nm emission against cAMP concentrations. The potency and activity of a compound to inhibit cAMP production was then determined by fitting to a 4-parametric logistic equation from a plot of cAMP level versus compound concentrations.

[2] = molecular target: human FPR1 (Homo sapiens (Human), UniProt P21462); experiment: FPR1 cyclic adenosine monophosphate (cAMP) assay; format: cell-based; settings: CHO cells overexpressing human FPR1; forskolin 10 µM; inhibition of cAMP production; read-out: hFPR1 cAMP EC50
Description: as §1
as §2, with “After a 1-h room temperature incubation, time-resolved fluorescence intensity was measured using the Envision (Perkin-Elmer) at 400 nm excitation and dual emission at 590 nm and 665 nm. A calibration curve was constructed with an external cAMP standard at concentrations ranging from 1 µM to 0.1 pM by plotting the fluorescent intensity ratio from 665 nm emission to the intensity from the 590 nm emission against cAMP concentrations.” left out

Sequence of human FPR2 (P25090 whole entry): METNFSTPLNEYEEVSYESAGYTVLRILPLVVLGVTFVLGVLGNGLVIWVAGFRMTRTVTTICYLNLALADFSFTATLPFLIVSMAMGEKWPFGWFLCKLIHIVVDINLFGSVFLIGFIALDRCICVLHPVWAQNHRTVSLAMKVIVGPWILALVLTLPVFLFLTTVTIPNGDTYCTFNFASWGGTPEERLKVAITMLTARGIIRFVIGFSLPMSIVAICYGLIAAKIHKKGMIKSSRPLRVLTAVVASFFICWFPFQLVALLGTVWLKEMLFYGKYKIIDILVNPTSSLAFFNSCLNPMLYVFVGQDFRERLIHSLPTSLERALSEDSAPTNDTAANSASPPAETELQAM
Sequence of human FPR1 (P21462 whole entry): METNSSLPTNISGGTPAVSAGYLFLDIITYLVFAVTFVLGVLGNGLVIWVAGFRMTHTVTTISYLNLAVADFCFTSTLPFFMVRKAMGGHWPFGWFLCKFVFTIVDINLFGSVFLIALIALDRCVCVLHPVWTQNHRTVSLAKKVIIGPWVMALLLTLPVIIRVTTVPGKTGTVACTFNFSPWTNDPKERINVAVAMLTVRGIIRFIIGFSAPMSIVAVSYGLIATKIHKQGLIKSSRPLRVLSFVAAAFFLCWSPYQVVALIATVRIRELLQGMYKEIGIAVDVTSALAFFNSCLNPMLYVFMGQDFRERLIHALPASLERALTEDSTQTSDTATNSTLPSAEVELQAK

EC50 [1] | EC50 [2] | Structure (SMILES)
1.7 nM | 290 nM | COc1cc(F)c([C@@H]2CN(c3cccn(CC(O)C(F)(F)F)c3=O)C(=O)[C@H]2NC(=O)c2ccc(OC(F)F)cc2)c(F)c1 (single isomer, unassigned) [Example 4]
2.9 nM | 14 nM | COc1cc(F)c([C@@H]2CN(c3cccn(CC(O)C(F)(F)F)c3=O)C(=O)[C@H]2NC(=O)c2ccc(OC(F)F)cc2)c(F)c1 (single isomer, unassigned) [Example 5]
28 nM | 4200 nM | COc1cc(F)c([C@@H]2CN(c3cccnc3C#N)C(=O)[C@H]2NC(=O)c2ccc(OC(F)F)cc2)c(F)c1 [Example 1, N-((3S,4R)-1-(2-cyanopyridin-3-yl)-4-(2,6-difluoro-4-methoxyphenyl)-2-oxopyrrolidin-3-yl)-4-(difluoromethoxy)benzamide]
29 nM | 1700 nM | COc1cc(F)c([C@@H]2CN(CC3CC3)C(=O)[C@H]2NC(=O)c2ccc(OC(F)F)cc2)c(F)c1 [Example 3, N-((3S,4R)-1-(cyclopropylmethyl)-4-(2,6-difluoro-4-methoxyphenyl)-2-oxopyrrolidin-3-yl)-4-(difluoromethoxy)benzamide]
5.1 nM | 650 nM | COc1cc(F)c([C@@H]2CN(c3nc(Cl)ccc3C#N)C(=O)[C@H]2NC(=O)c2ccc(OC(F)F)cc2)c(F)c1 [Example 6]
10 nM | 1300 nM | COc1cc(F)c([C@@H]2CN(c3ncccc3C(F)(F)F)C(=O)[C@H]2NC(=O)c2ccc(OC(F)F)cc2)c(F)c1 [Example 7]
15 nM | 280 nM | COc1cc(F)c([C@@H]2CN(c3cc(OC)ccc3F)C(=O)[C@H]2NC(=O)c2ccc(OC(F)(F)F)cc2)c(F)c1 [Example 8]
50 nM | 290 nM | COc1cc(F)c([C@@H]2CN(c3cccc(=O)n3C)C(=O)[C@H]2NC(=O)c2ccc(OC(F)F)cc2)c(F)c1 [Example 10]
31 nM | 86 nM | COc1cc(F)c([C@@H]2CN(c3cccc(=O)n3C)C(=O)[C@H]2NC(=O)c2ccc(OC(F)(F)F)cc2)c(F)c1 [Example 11]
91 nM | > 10000 nM | COc1cc(F)c([C@@H]2CN(c3cc(Cl)cc(C(F)(F)F)c3)C(=O)[C@H]2NC(=O)c2ccc(OC(F)F)cc2)c(F)c1 [Example 12]
45 nM | 85 nM | COc1cc(F)c([C@@H]2CN(c3cc(P(C)(C)=O)ccn3)C(=O)[C@H]2NC(=O)c2ccc(OC(F)(F)F)cc2)c(F)c1 [Example 13]
37 nM | 43 nM | COc1cc(F)c([C@@H]2CN(c3cc(F)cc(OC(C)C)c3)C(=O)[C@H]2NC(=O)c2ccc(OC(F)(F)F)cc2)c(F)c1 [Example 14]
22 nM | 1100 nM | COc1cc(F)c([C@@H]2CN(c3ncccc3C#N)C(=O)[C@H]2NC(=O)c2ccc(OC(F)(F)F)cc2)c(F)c1 [Example 15]
36 nM | 69 nM | COc1cc(F)c([C@@H]2CN(Cc3ccccc3P(C)(C)=O)C(=O)[C@H]2NC(=O)c2ccc(OC(F)(F)F)cc2)c(F)c1 [Example 17]
37 nM | 200 nM | COc1cc(F)c([C@@H]2CN(Cc3ccccc3P(C)(C)=O)C(=O)[C@H]2NC(=O)c2ccc(OC(F)F)cc2)c(F)c1 [Example 18]
24 nM | 540 nM | COc1cc(F)c([C@@H]2CN(c3ccccc3P(C)(C)=O)C(=O)[C@H]2NC(=O)c2ccc(OC(F)(F)F)cc2)c(F)c1 [Example 19]
32 nM | 560 nM | COc1cc(F)c([C@@H]2CN(CC3CC3)C(=O)[C@H]2NC(=O)c2ccc(OC(F)(F)F)cc2)c(F)c1 [Example 20]
35 nM | 2300 nM | COc1cc(F)c([C@@H]2CN(c3cccnc3C#N)C(=O)[C@H]2NC(=O)c2ccc(OC(F)(F)F)cc2)c(F)c1 [Example 21]
13 nM | 3200 nM | COc1cc(F)c([C@@H]2CN(c3ncccc3P(C)(C)=O)C(=O)[C@H]2NC(=O)c2ccc(OC(F)(F)F)cc2)c(F)c1 [Example 22]

EC50 [1] | EC50 [2] | Structure (SMILES)
28 nM | 1500 nM | COc1ccnc(N2C[C@@H](c3c(F)cc(OC)cc3F)[C@H](NC(=O)c3ccc(OC(F)(F)F)cc3)C2=O)c1 [Example 23]
45 nM | 300 nM | COc1cc(F)c([C@@H]2CN(c3cccc(C(F)F)n3)C(=O)[C@H]2NC(=O)c2ccc(OC(F)(F)F)cc2)c(F)c1 [Example 24]
35 nM | > 10000 nM | COc1cc(F)c([C@@H]2CN(c3ncccc3P(C)(C)=O)C(=O)[C@H]2NC(=O)c2ccc(OC(F)F)cc2)c(F)c1 [Example 25]
35 nM | 27 nM | COc1cc(F)c([C@@H]2CN(c3ccc(=O)n(C)c3)C(=O)[C@H]2NC(=O)c2ccc(OC(F)(F)F)cc2)c(F)c1 [Example 26]
27 nM | 570 nM | COc1cc(F)c([C@@H]2CN(c3ncccc3CO)C(=O)[C@H]2NC(=O)c2ccc(OC(F)(F)F)cc2)c(F)c1 [Example 27]
7 nM | 1100 nM | COc1cc(F)c([C@@H]2CN(c3ncccc3F)C(=O)[C@H]2NC(=O)c2ccc(OC(F)(F)F)cc2)c(F)c1 [Example 28]
51 nM | 110 nM | COc1cc(F)c([C@@H]2CN(c3cc(F)cc(OC(C)C)c3)C(=O)[C@H]2NC(=O)c2ccc(OC(F)F)cc2)c(F)c1 [Example 29]
10 nM | 750 nM | COc1cc(F)c([C@@H]2CN(c3cccnc3P(C)(C)=O)C(=O)[C@H]2NC(=O)c2ccc(OC(F)F)cc2)c(F)c1 [Example 30]
10 nM | 150 nM | COc1cc(F)c([C@@H]2CN(c3ccccc3P(C)(C)=O)C(=O)[C@H]2NC(=O)c2ccc(OC(F)F)cc2)c(F)c1 [Example 31]
18 nM | 960 nM | COc1ccnc(N2C[C@@H](c3c(F)cc(OC)cc3F)[C@H](NC(=O)c3ccc(OC(F)F)cc3)C2=O)c1 [Example 32]
5 nM | 1610 nM | COc1cc(F)c([C@@H]2CN(c3ncccc3F)C(=O)[C@H]2NC(=O)c2ccc(OC(F)F)cc2)c(F)c1 [Example 33]
3.8 nM | 300 nM | COc1cc(F)c([C@@H]2CN(c3cccn(C)c3=O)C(=O)[C@H]2NC(=O)c2ccc(OC(F)F)cc2)c(F)c1 [Example 34]
3.1 nM | > 10000 nM | COc1cc(N2CCN(C)CC2)nc(N2C[C@@H](c3c(F)cc(OC)cc3F)[C@H](NC(=O)c3ccc(OC(F)F)cc3)C2=O)c1 [Example 35]
2.9 nM | – | COc1cc(F)c([C@@H]2CN(c3c(C)ccn(CC(C)O)c3=O)C(=O)[C@H]2NC(=O)c2ccc(OC(F)(F)F)cc2)c(F)c1 (stereo partly drawn) [Example 400]
1.5 nM | – | COCC(CO)n1ccc(C)c(N2C[C@@H](c3c(F)cc(OC)cc3F)[C@H](NC(=O)c3ccc(OC(F)(F)F)cc3)C2=O)c1=O (stereo partly drawn) [Example 429]
5.8 nM | – | COc1ccc([C@@H]2CN(c3ccnn(CCC(F)(F)F)c3=O)C(=O)[C@H]2NC(=O)c2ccc(Cl)cc2)cc1 [Example 671]
13 nM | – | COc1cc(F)c([C@@H]2CN(c3c(C)ccn(CC(O)C4CC4)c3=O)C(=O)[C@H]2NC(=O)c2ccc(OC(F)(F)F)cc2)c(F)c1 (stereo partly drawn) [Example 683]
– | 0.7 nM | COc1cc(F)c([C@@H]2CN(c3c(C)ccn(CC(O)C4CC4)c3=O)C(=O)[C@H]2NC(=O)c2ccc(OC(F)(F)F)cc2)c(F)c1 (stereo partly drawn) [Example 686]
